Laboratory results reported in US11999782B2, “Therapeutic agents for the treatment of diseases associated with undesired cell proliferation” (Fundació Privada Institutció Catalana de Recerca I Estudis …, priority 2009, dated 2024).

B1: TGFβ2: TGFβ2 (R&D Systems), member of the TGFβ family (protein, UniProt P61812 303-414, looked up)
Transforming growth factor …: ALDAAYCFRNVQDNCCLRPLYIDFKRDLGWKWIHEPKGYNANFCAGACPYLWSSDTQHSRVLSLYNTINPEASASPCCVSQDLEPLTILYYIGKTPKIEQLSNMIVKSCKCS

Legend:
[1] = test system: GICs (glioma initiating cells) / GBM neurospheres; assay: Self-renewal assay of GBM neurospheres (GICs derived from patients); format: cell-based, human; details: added with 100 pM TGFβ1; 2 μM TβRI inhibitor, anti-LIF neutralizing antibody or 0.5 pM P6; absence of EGF and FGF
Description: FIG. 1. Effect of TGFβ on the self-renewal of GIC derived from patients. (A) Representative images of PCTCs and neurospheres of GBM generated from samples of 3 different patients with GBM (GBM1, GBM2, GBM3). (B) Musashi-1 (Msi-1), Sox2, Nestin and β-actin were determined by means of RT-PCR analysis of PCTCs and neurospheres of 3 samples of human GBM. (C) 100,000 neurosphere (nsph.) or PCTC cells obtained from samples of GBM1, GBM2 and GBM3 tumors were intracranially inoculated in three Balbc nu/nu mice in each case. Magnetic resonance imaging (MRI) studies were performed on days 30-40 in each mouse. The images represent an example of mice inoculated with neurosphere or PCTC cells obtained from GBM1. The mice were weighed twice a week. The graph represents mice inoculated with cells derived from GBM1. (D and E) Neurosphere cells of the indicated GBMs were incubated in the absence of growth factors with 100 pM TGFβ1 and/or 2 μM TβRI inhibitor for 7 days and the number of newly formed neurospheres (D) and the total number of cells (E) were determined. (F) Representative images of GBM1 neurospheres treated as indicated in D and E.
FIG. 6. LIF mediates the increase of self-renewal of GIC by TGFβ. (A, B) GBM1, GBM2 and GBM3 neurosphere cells were treated with 100 pM TGFβ1, 20 ng/ml LIF and/or anti-LIF neutralizing antibody and 0.5 pM P6 in the absence of EGF and FGF and the number of newly formed neurospheres (A) or the total number of cells (B) was determined. (C) Representative images of GBM1 neurospheres treated as indicated in A and B.
The self-renewal of the neurospheres was evaluated by seeding an identical number of cells at a very low density in wells of a 96-well plate. The cells were treated, in the absence of growth factors, with the indicated compounds and the total number of new neurospheres formed after 7 days in culture was counted (Lee et al. (2008) Cancer Cell 13, 69-80; Reynolds and Weiss, (1996) Dev Biol 175, 1-13; Seaberg and van der Kooy, (2002) J Neurosci 22, 1784-1793).
It was decided to evaluate the effect of TGFβ on the capacity for self-renewal of GICs following a well described protocol based on the capacity of GICs to generate neurospheres (Reynolds and Weiss, 1996, Dev Biol. 175:1-13; Seaberg and van der Kooy, 2002, J Neurosci 22:1784-1793). The neurospheres derived from patients were disassociated into individual cells, treated with TGFβ or left untreated for 7 days in the absence of growth factors and the newly formed neurospheres and the total number of cells were counted. Following this protocol, the effect of TGFβ on the capacity for self-renewal of the GICs derived from three different patients was evaluated. […] These effects were blocked when an TGFβ I receptor inhibitor (TβRI) was added at the same time as TGFβ.
It was decided to assess whether LIF and JAK-STAT pathway mediated the increase of self-renewal of GICs by TGFβ. For this purpose, the neutralizing antibody against LIP and P6 was used to specifically block the effect of the secreted LIP on cells treated with TGFβ. The neurospheres were disassociated into individual cells and were treated with TGFβ, recombinant LIF, anti-LIF antibody and/or P6. The newly formed neurospheres and the total number of cells were counted. […] The treatment with the neutralizing antibody of LIP decreased the induction of the self-renewal of GICs by TGFβ.

[2] = test system: STAT3 phosphorylation (JAK-STAT pathway); assay: p-STAT3 Western blotting in GBM1 neurospheres; format: cell-based, human
Description: FIG. 5. TGFβ induces the LIF-JAK-STAT pathway in GEM neurospheres derived from patients. (A) The levels of p-STAT3 and STAT3 were determined by means of Western blotting of neurospheres of the sample of GBM1 treated with 20 ng/ml LIF for the indicated time periods. (B) The neurospheres of the sample of GBM1 were treated with 20 ng/ml LIF and/or 0.5 pM P6 for 15 minutes and the levels of total p-STAT3 and STAT3 were determined by means of Western blotting. (C) The neurospheres of the sample of GBM1 were treated with 100 pM TGFβ1 or the 2 pM TβRI inhibitor for 4 hours in the absence of EFG and FGF and the levels of p-STAT3, STAT3, p-Smad2, Smad2 and α-tubulin were determined by means of Western blotting. (D) the neurospheres of the sample of GBM1 were treated with 100 pM TGFβ1, 0.5 μM P6 or the blocking antibody against LIF for 4 hours in the absence of EGF and FGF and the levels of total p-STAT3 and STAT3 were determined by means of Western blotting.
Genomic DNA of U373MG was used to amplify the −634/+32 region of the human LIF promoter which was cloned into the pGL2-basic luciferase vector. The deletion constructs (−267/+32), and (−73/+32) were generated by means of digestion of the construct (−634/+32). Two point mutations were introduced in positions −183 bp and −184 bp in the construct (−267/+32) to interrupt the Smad binding element (SBE) and generate the construct (−267/+32) mutSBE. TGFβ1, TGFβ2, TGFβ3 (R&D Systems), TβRI inhibitor (SB431542, Tocris), LIF (Chemicon), the neutralizing antibodies against LIF (R&D), JAK inhibitor (tetracyclic pyridone 6 (P6) Calbiochem), the assembly of SMART siRNAs targeted to Smad2, Smad3 and Smad4 (Dharmacon), and the control siRNA siGlo (Dharmacon) were used at the indicated concentrations. The antibodies specific against p-Smad2, Smad2, p-STAT3 (p-Tyr705) and total STAT3 (Cell Signalling) and against Smad2, Smad3 and Smad4 (Hata et al., (2000) Cell 100, 229-240) were used for Western blotting.
In order to distinguish whether the LIF signaling pathway is functional in GEM neurospheres, the neurospheres were treated with recombinant LIF and the levels of phosphorylation of the downstream substrate of the LIF receptor complex, STAT3, were determined. […] Furthermore, the induction of p-STAT3 was prevented by the presence of a pharmacological JAK-specific, tetracyclic pyridone 6 (P6) (Pedranzini et al., 2006, Cancer Res, 66: 9714-9721; Thompson et al., 2002, Bioorg Med Chem Lett, 12:1219-1223) (FIG. 5B). […] It was decided to assess whether LIP was mediating the induction of p-STAT3 by TGFβ. For this purpose, a neutralizing antibody against LIF was used to specifically block the effect of secreted LIP on cells treated with TGFβ. The presence of the neutralizing antibody of LIP decreased the induction of p-STAT3 by TGFβ. Furthermore, the levels of p-STAT3 in cells treated with TGFβ were repressed by means of the treatment with P6 (FIG. 5D).

[3] = test system: LIF expression in GBM neurospheres; assay: LIF mRNA by qRT-PCR in GBM neurospheres; format: cell-based, human; details: 100 pM, 3 hours, medium without serum
Description: FIG. 3. TGFβ induces the expression of LIF in PCTC and GBM neurospheres. (A) PCTC cells of the 11 samples of the indicated GEM (GBM1-11) were treated with 100 pM TGFβ1 for 3 hours in medium without serum or left untreated, and the expression levels of LIF were determined by means of qRT-PCR. The g-actin was determined as an internal normalization control. (B) GBM neurosphere cells were treated as in A and the expression levels of LIF were determined by means of qRT-PCR as in A. (C) GBM neurospheres were incubated with 100 pM TGFβ1 and/or 2 μM TβRI inhibitor for 3 hours in medium without serum and the mRNA levels of LIF were determined by means of qRT-PCR as in A. (D) GBM1 neurospheres were incubated with 100 pM TGFβ1, TGFβ2 and TGFβ3 for 3 hours in medium without serum and the mRNA levels of LIF were determined by means of qRT-PCR as in A. (E) The levels of LIF protein secreted were determined by means of ELISA in GBM1 neurospheres after 48 hours of treatment with 100 pM TGFβ1.
The U373MG and A172 cells were a generous gift from J. Rich and D. Bigner and were cultured in DMEM with 10% fetal bovine serum (FBS). The primary culture of tumor cells (PCTC) and the GBM neurospheres were generated as described (Bruna et al., (2007) Cancer Cell 11, 147-160; Gunther et al., (2008) Oncogene. May 1; 27(20):2897-909). Briefly, the samples of tumors were processed in the 30 minutes after the surgical resection. The ground pieces of the samples of human gliomas were digested with 200 U/ml collagenase I (Sigma) and 500 U/ml of DNase I (Sigma) in PBS for 2 hours at 37° C. and with constant vigorous stirring. The suspension of individual cells was filtered through a 70 μm cell filter (BD Falcon) and washed with PBS. Finally, the cells were resuspended and subsequently cultured in DMEM with 10% FBS, for the culture of PCTCs, or in neurosphere medium in the case of the GBM neurospheres. The neurospheres of normal human neuroprogenitors were generated from human embryonic cerebral cortex tissue (12-16 weeks after the conception) collected after voluntary abortions. The samples were processed and cultured as described (Poltavtseva et al. (2002) Brain Res Dev Brain Res 134, 149-154). The neurosphere medium consists of neurobasal medium (Gibco) supplemented with B27 (Gibco), L-glutamine (Gibco), penicillin/streptomycin, and growth factors (20 ng/mL EGF and 20 ng/mL FGF-2 (Peprotech)).
(§1) qRT-PCR was performed using Taqman probes from Applied Biosystems, according to the manufacturer's recommendations. The reactions were carried out in a ABI 7000 sequence detector (Perkin Elmer) and the results were expressed as the fold change calculated by means of the DDCt method relative to the control sample or the first quantified sample. The ribosomal unit of 18S or β-actin were used as internal normalization controls.
It was decided to investigate the molecular mechanisms responsible for the effect of TGFβ on GICs. Gene responses to TGFβ in GBM cells which could be involved in the regulation of the self-renewal of GICs were investigated. In a previous work (Bruna et al., 2007), transcriptome analyses were conducted in the U373MG glioma cell line treated with TGFβ and/or a TβRI inhibitor. LIF was among the 63 gene responses to TGFβ in U373MG which were dependent on the activity of TβRI. […] A panel of PCTCs derived from 11 different human GBMs was treated with TGFβ for 3 hours and the levels of LIF mRNA were determined.

[4] = test system: LIF expression in normal human neuroprogenitors; assay: LIF mRNA in neurospheres of normal human neuroprogenitors; format: cell-based; details: 100 pM, 3 hours, compared with GBM neurospheres
Description: FIG. 8. Effect of TGFβ on the capacity of self-renewal of normal human neuroprogenitors. (A) Immunocytochemistry of the indicated markers was performed in human neuroprogenitor neurospheres. (B) Neurospheres of the sample of GBM1 and of human neuroprogenitors were incubated with the indicated members of the 100 pM TGFβ family for 3 hours and the mRNA levels of LIF were determined. (C, D) Neurosphere cells of normal human neuroprogenitors were incubated in the same conditions that have been described above in FIG. 1D in the presence of 100 pM TGFβ1 or 20 ng/ml LIF for 7 days and the number of newly formed neurospheres (C) and the number total of cells (D) were determined.
The U373MG and A172 cells were a generous gift from J. Rich and D. Bigner and were cultured in DMEM with 10% fetal bovine serum (FBS). The primary culture of tumor cells (PCTC) and the GBM neurospheres were generated as described (Bruna et al., (2007) Cancer Cell 11, 147-160; Gunther et al., (2008) Oncogene. May 1; 27(20):2897-909). Briefly, the samples of tumors were processed in the 30 minutes after the surgical resection. The ground pieces of the samples of human gliomas were digested with 200 U/ml collagenase I (Sigma) and 500 U/ml of DNase I (Sigma) in PBS for 2 hours at 37° C. and with constant vigorous stirring. The suspension of individual cells was filtered through a 70 μm cell filter (BD Falcon) and washed with PBS. […]
as §1, with “The ribosomal unit of 18S or β-actin were used as internal normalization controls.” left out
It was decided to assess whether this effect was specific to tumor cells or was also present in normal neuroprogenitor cells. […] First, it was determined if TGFβ induced LIF in normal human neuroprogenitors. […]

| Molecule | effect on the induction of self-renewal of GICs by TGFβ (number of neurospheres, total number of cells) [1] | effect on the induction of p-STAT3 by TGFβ ([2]; 100 pM TGFβ1, 4 hours, absence of EGF and FGF, 2 pM TβRI inhibitor, 0.5 μM P6 or blocking antibody against LIF) | effect on the induction of p-STAT3 by LIF ([2]; 20 ng/ml LIF and 0.5 pM P6, 15 minutes) | LIF transcript in neurospheres derived from patients [3] | induction of LIF mRNA in normal human neuroprogenitor neurospheres [4] |
| --- | --- | --- | --- | --- | --- |
| CC(C)(C)c1nc2c3ccc(F)cc3c3c(=O)[nH]ccc3c2[nH]1 [P6, tetracyclic pyridone 6] | repressed | repressed | prevented | – | – |
| B1 | – | – | – | capable of inducing LIF | did not induce LIF |
